The values below come from ChEMBL document CHEMBL3779878, “Indomethacin based new triazolothiadiazine derivatives: Synthesis, evaluation of their anticancer effects on T98 human glioma cell line related to COX-2 inhibition and docking studies” (2016).

Activity calls are given as the source filed them. The calls are words filed in the database; no cut-off is given here.

In assay [1] the test system is T98. Nature of the assay: Effect on cytochrome-c mRNA expression levels in human T98 cells at 50 to 100 uM by real-time PCR assay. It counts as functional, cell-based.
Assay [2] is described as follows: Antiproliferative activity against human T98 cells assessed as reduction in survival rate at 50 uM after 24 hrs by MTT assay relative to control. It counts as functional. A general note: Formazan colour is commonly taken as a measure of viable cells.
Assay [3] deals with T98. Nature of the assay: Induction of apoptosis in human T98 cells assessed as alive cells at 50 uM after 24 hrs by Annexin-V-FITC/propidium iodide staining based flow cytometry analysis (reference value: 95 +/- 5.6 %). It counts as functional. A general note: In flow cytometry, cells or beads pass a laser one at a time.
Assay [4] concerns T98. Nature of the assay: Effect on caspase 8 mRNA expression levels in human T98 cells at 50 to 100 uM by real-time PCR assay. It is filed as functional, cell-based. For orientation: Quantitative PCR measures a nucleic acid by following its amplification.
Assay [5] relates to T98. The experiment in a line: Antiproliferative activity against human T98 cells assessed as reduction in survival rate at 1 to 100 uM after 24 hrs by MTT assay. It counts as functional, cell-based.
A short description of assay [6]: Antiproliferative activity against human T98 cells assessed as reduction in survival rate at 100 uM after 24 hrs by MTT assay relative to control. It is filed as functional.
Assay [7] is described as follows: Induction of apoptosis in human T98 cells assessed as total death rate at 50 uM after 24 hrs by Annexin-V-FITC/propidium iodide staining based flow cytometry analysis (reference value: 3.8 %). It is filed as functional.
The test system of assay [8] is T98. Nature of the assay: Induction of apoptosis in human T98 cells assessed as early apoptotic cells at 100 uM after 24 hrs by Annexin-V-FITC/propidium iodide staining based flow cytometry analysis (reference value: 1.1 +/- 0.3 %). It is filed as functional.
For assay [9], the system named is T98. The experiment in a line: Effect on caspase 9 mRNA expression levels in human T98 cells at 50 to 100 uM by real-time PCR assay. It counts as functional, cell-based.
Assay [10] is described as follows: Induction of apoptosis in human T98 cells assessed as total death rate at 100 uM after 24 hrs by Annexin-V-FITC/propidium iodide staining based flow cytometry analysis (reference value: 3.8 %). It counts as functional.
The subject of assay [11] is T98. The experiment in a line: Induction of apoptosis in human T98 cells assessed as alive cells at 100 uM after 24 hrs by Annexin-V-FITC/propidium iodide staining based flow cytometry analysis (reference value: 95 +/- 5.6 %). It is filed as functional.
Assay [12] relates to T98. Nature of the assay: Induction of apoptosis in human T98 cells assessed as early apoptotic cells at 50 uM after 24 hrs by Annexin-V-FITC/propidium iodide staining based flow cytometry analysis (reference value: 1.1 +/- 0.3 %). It counts as functional.
The test system of assay [13] is T98. The experiment in a line: Induction of apoptosis in human T98 cells assessed as late apoptotic cells at 100 uM after 24 hrs by Annexin-V-FITC/propidium iodide staining based flow cytometry analysis (reference value: 2.7 +/- 1.4 %). It is filed as functional.
Assay [14] is described as follows: Reduction in Cox-2 mRNA expression levels in human T98 cells by real-time PCR assay. It counts as functional, cell-based.
For assay [15], the system named is T98. The experiment in a line: Effect on caspase 3 mRNA expression levels in human T98 cells at 50 to 100 uM by real-time PCR assay. It is filed as functional, cell-based.
Assay [16] relates to T98. The experiment in a line: Induction of apoptosis in human T98 cells assessed as late apoptotic cells at 50 uM after 24 hrs by Annexin-V-FITC/propidium iodide staining based flow cytometry analysis (reference value: 2.7 +/- 1.4 %). It is filed as functional.

With `COc1ccc2c(c1)c(Cc1nnc3n1N=C(c1ccc(C)cc1)CS3)c(C)n2C(=O)c1ccc(Cl)cc1`, the outcome in the assay on T98 [1], with T98 [4], in the assay with T98 [9] and in the assay with T98 [15] was inactive. In addition, the Activity was found to be 25% in [2]; 39% with T98 [3]; 40% in [6]; 49% in assay [7]; 12% in the assay with T98 [8]; 59% in [10]. For the same molecule, the Activity in the assay with T98 [11] was 31%; in the assay on T98 [12] it was 11%; in the assay on T98 [13], 47%; in assay [14] it was “Dose-dependent effect”; with T98 [16], 38%. Also, in the assay on T98 [5], the outcome was Active.
